Laboratory results from patent US20050119352A1, “Method of treating cancers” (priority 2002, published 2005).
Where two headings read alike, the source gives them in different places.

Tests used:
[1] = test system: transplanted human mammary carcinoma; details: cited from earlier work
[2] = test system: K562 cells (human chronic myelogenous leukemia cell line), imatinib-resistant; experiment: MTT cell survival assay in K562 CML cells, imatinib-resistant line; type: cell-based; details: 48 hours; for % Viability: Imatinib 0 μM
Method: (§1) K562 cells (a human chronic myelogenous leukemia (CML) cell line), were suspended in RPMI 1640 Medium (Life Technologies Inc.), supplemented with 10% FCS, 2 mM L-glutamine in 96-well plates (2×10^4 cells per well). Both an imatinib-sensitive and an imatinib-resistant cell line were used. Each well was treated with β-lapachone and/or imatinib. Each condition was run in triplicate. After incubation for 48 hours, cell survival was assayed using MTT to determine cell survival. The plates were read using a plate reader at 570 nm.

[3] = test system: K562 cells (human chronic myelogenous leukemia cell line), imatinib-sensitive; experiment: MTT cell survival assay in K562 CML cells, imatinib-sensitive line
Method: as §1

[4] = test system: ARH-77 cells, a human multiple myeloma cell line; experiment: MTT cell survival assay in ARH-77 multiple myeloma cells
Method: β-lapachone was dissolved at 20 mM concentration in dimethyl sulfoxide (DMSO), aliquoted, and stored at −20° C. for cell culture use. Imatinib was dissolved at 100 mM concentration in dimethyl sulfoxide (DMSO).
Each well was treated with β-lapachone and/or imatinib. Each condition was run in triplicate. […] The plates were read using a plate reader at 570 nm.

[5] = cited from earlier work

Compound: O=CN/C=C/c1cc(O)ccc1O [erbstatin]
- tumor growth ([1]; another carcinoma which does not express the EGF receptor): without effect
- tumor growth ([1]; carcinoma which expresses epidermal growth factor receptor tyrosine kinase, athymic nude mice): selectively attenuates the growth

Compound: Cc1ccc(NC(=O)c2ccc(CN3CCN(C)CC3)cc2)cc1Nc1nccc(-c2cccnc2)n1 [imatinib, Imatinib]
- viability at 1 µM ([2]; Homo sapiens, K562, Imatinib 1 μM, B-lapachon 0 μM): 94.7%
- viability at 5 µM ([2]; Homo sapiens, K562, Imatinib 5 μM, B-lapachon 0 μM): 57.3%
- viability at 10 µM ([2]; Homo sapiens, K562, Imatinib 10 μM, B-lapachon 0 μM): 22.5%
- viability at 20 µM ([2]; Homo sapiens, K562, Imatinib 20 μM, B-lapachon 0 μM): 11.5%
- viability at 40 µM ([2]; Homo sapiens, K562, Imatinib 40 μM, B-lapachon 0 μM): 4.9%
- sensitivity to imatinib alone, compared with imatinib-sensitive line ([2]; imatinib alone): less sensitivity
- viability at 0.5 µM ([3]; Homo sapiens, K562, 48 h): 57.2%
- viability at 1 µM ([3]; Homo sapiens, K562, 48 h): 36.6%
- viability at 5 µM ([3]; Homo sapiens, K562, 48 h): 20.9%
- viability at 10 µM ([3]; Homo sapiens, K562, 48 h): 13.9%
- viability at 20 µM ([3]; Homo sapiens, K562, 48 h): 0.9%
- % Viability ([4]; STI571 1 μM, Co-501 0 μM, 24 hours): 66.3%
- % Viability ([4]; STI571 2 μM, Co-501 0 μM, 24 hours): 80.0%
- % Viability ([4]; STI571 5 μM, Co-501 0 μM, 24 hours): 85.7%
- % Viability ([4]; STI571 10 μM, Co-501 0 μM, 24 hours): 91%
- % Viability ([4]; STI571 20 μM, Co-501 0 μM, 24 hours): 47%
- % Viability ([4]; STI571 20 μM, Co-501 0 μM, 24 hours, listed as STI571): 46.7%
- % Viability ([4]; STI571 50 μM, Co-501 0 μM, 24 hours): 10.0%

Compound: CC1(C)CCC2=C(O1)c1ccccc1C(=O)C2=O [β-lapachone, 3,4-dihydro-2,2-dimethyl-2H-naphtho[1,2-b]pyran-5,6-dione]
- % Viability ([2]; B-lapachon 0.5 μM): 80.5%
- % Viability ([2]; B-lapachon 1 μM): 79%
- % Viability ([2]; B-lapachon 2 μM): 45%
- % Viability ([2]; B-lapachon 4 μM): 0.56%
- % Viability ([3]; Imatinib 0 μM, B-lapachone 1 μM, 48 hours): 36.2%
- % Viability ([3]; Imatinib 0 μM, B-lapachone 2 μM, 48 hours): 11.9%
- % Viability ([3]; Imatinib 0 μM, B-lapachone 4 μM, 48 hours): 1.0%
- % Viability ([3]; human, 48 h, 0.5 μM): 58.3%
- viability at 1 µM ([4]; Homo sapiens, ARH-77, 24 h, STI571 0 μM, Co-501 1 μM, 24 hours): 91%
- viability at 2 µM ([4]; Homo sapiens, ARH-77, 24 h, STI571 0 μM, Co-501 2 μM, 24 hours): 34%
- viability at 4 µM ([4]; Homo sapiens, ARH-77, 24 h, STI571 0 μM, Co-501 4 μM, 24 hours): 40%
- % Viability ([4]; STI571 0 μM, Co-501 2 μM, 24 hours): 34.3%
- % Viability ([4]; human, 24 h, 1 μM): 91.4%
- water solubility [5]: water insolubility
